Broadly, the IC50 is the concentration at which inhibition is half-maximal.

The first experiment addresses T1, GLUT1 (Homo sapiens, UniProt P11166).
T1 construct: endogenous in cells
T1 sequence (P11166 1-492): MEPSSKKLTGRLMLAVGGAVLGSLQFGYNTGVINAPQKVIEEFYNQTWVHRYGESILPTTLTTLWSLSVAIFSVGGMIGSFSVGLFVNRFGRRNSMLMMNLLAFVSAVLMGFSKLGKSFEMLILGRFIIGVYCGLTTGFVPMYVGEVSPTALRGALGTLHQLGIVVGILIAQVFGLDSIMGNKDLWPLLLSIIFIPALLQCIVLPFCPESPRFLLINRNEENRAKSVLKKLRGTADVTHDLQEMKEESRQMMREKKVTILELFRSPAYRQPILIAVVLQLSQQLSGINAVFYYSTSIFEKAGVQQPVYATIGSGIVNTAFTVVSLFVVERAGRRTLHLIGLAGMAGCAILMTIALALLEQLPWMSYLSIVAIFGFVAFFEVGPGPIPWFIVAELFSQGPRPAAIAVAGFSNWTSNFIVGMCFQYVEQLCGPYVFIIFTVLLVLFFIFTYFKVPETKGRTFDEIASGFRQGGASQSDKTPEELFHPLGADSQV
In words: Indirect measurement of GLUT activity by quantification of intracellular ATP levels (glucose induced ATP increase). As to conditions: DLD1 cells; 1 mM glucose, 1 uM Rotenone, 15 min; standardized to cytochalasin B IC50 values; read-out: IC50 regarding glucose induced ATP increase (GLUT1 inhibition). It is filed as cell-based. The source says:
(§1) It is well known that a combination of small-molecule inhibitors of mitochondrial electron transport chain and glucose catabolism synergistically suppress ATP production and impair cellular viability (Ulanovskaya et al., 2008, 2011; Liu, et al. 2001). We therefore used DLD1 or CHO-K1 cells in combination with an oxidative phosphorylation inhibitor to identify GLUT inhibitors. Cell lines were maintained in DMEM medium supplemented with 10% FCS and 1% Penicillin-Streptomycin solution and 2% Glutamax. The cells were treated with trypsin and seeded into 384 plates at a density of 4000 cells/well. The cells were then cultured overnight in glucose free media containing 1% FCS to reduce intracellular ATP levels. After 24 h the cells were incubated at 37° C. containing the appropriate glucose or in case of GLUT2 fructose concentration (1 mM and 30 mM respectively) with or without compounds and 1 uM Rotenone for 15 min. The CellTiter-Glo® Luminescent Cell Viability Assay from Promega was then used to measure ATP levels. Compounds able to reduce the ATP Levels within 15 min of glucose application were considered to be glucose uptake inhibitors.
In the case of `Cc1nn(Cc2ccc(C#N)cc2)cc1NC(=O)c1cc(C(N)=O)nc2ccccc12` [Example 9, N^4-[1-(4-cyanobenzyl)-3-methyl-1H-pyrazol-4-yl]quinoline-2,4-dicarboxamide], the IC50 came out at 4.3 nM.

As to `Cc1nc(Cn2cc(NC(=O)c3cc(C(N)=O)nc4ccccc34)c(C)n2)cs1` [Example 68, N^4-{3-methyl-1-[(2-methyl-1,3-thiazol-4-yl)methyl]-1H-pyrazol-4-yl}quinoline-2,4-dicarboxamide], the half-inhibitory concentration (IC50) was 260 nM.

Take `CC(c1ccc(C#N)cc1)n1cc(NC(=O)c2cc(C(N)=O)nc3ccccc23)c(C(F)(F)F)n1` (racemic) [Example 40, (±)—N^4-{1-[1-(4-cyanophenyl)ethyl]-3-(trifluoromethyl)-1H-pyrazol-4-yl}quinoline-2,4-dicarboxamide]: the IC50 turned out to be 32 nM.

For `O=C(NCCO)c1nn(Cc2ccc(F)cc2)cc1NC(=O)c1cc(C(F)(F)F)nc2ccc(Br)cc12` [Example 20, 6-bromo-N-{1-(4-fluorobenzyl)-3-[(2-hydroxyethyl)carbamoyl]-1H-pyrazol-4-yl}-2-(trifluoromethyl)quinoline-4-carboxamide], the IC50 amounted to 2000 nM.

With `Cc1ccc2nc(C)cc(C(=O)Nc3cn(Cc4ccc(F)cc4)nc3C)c2c1` [Example 1, N-[1-(4-fluorobenzyl)-3-methyl-1H-pyrazol-4-yl]-2,6-dimethylquinoline-4-carboxamide], the 50% inhibitory concentration (IC50) was found to be 61 nM.

For `Cc1nn(Cc2ccc(C#N)cc2)cc1NC(=O)c1cc(C(F)(F)F)nc2ccc(Br)cc12` [Example 8, 6-bromo-N-[1-(4-cyanobenzyl)-3-methyl-1H-pyrazol-4-yl]-2-(trifluoromethyl)quinoline-4-carboxamide], the IC50 is 21 nM.

As for `CN(C)C(=O)c1nn(Cc2ccc(F)cc2)cc1NC(=O)c1cc(C(F)(F)F)nc2ccc(Br)cc12` [Example 19, 6-bromo-N-[3-(dimethylcarbamoyl)-1-(4-fluorobenzyl)-1H-pyrazol-4-yl]-2-(trifluoromethyl)quinoline-4-carboxamide], the IC50 was determined as 20 nM.

For `Cc1ccc(Cn2cc(NC(=O)c3cc(C(N)=O)nc4ccccc34)c(C)n2)cc1` [Example 54, N^4-[3-methyl-1-(4-methylbenzyl)-1H-pyrazol-4-yl]quinoline-2,4-dicarboxamide], the IC50 turned out to be 13 nM.

As for `COc1ccc(Cn2cc(NC(=O)c3cc(C(N)=O)nc4cc(F)c(Cl)cc34)c(C(F)(F)F)n2)cc1` [Example 46, 6-chloro-7-fluoro-N^4-[1-(4-methoxybenzyl)-3-(trifluoromethyl)-1H-pyrazol-4-yl]quinoline-2,4-dicarboxamide], the IC50 is 4.7 nM.

For the molecule `Cc1ccc2nc(C)cc(C(=O)Nc3cn(Cc4ccc(F)cc4)nc3C(F)(F)F)c2c1` [Example 33, N-[1-(4-fluorobenzyl)-3-(trifluoromethyl)-1H-pyrazol-4-yl]-2,6-dimethylquinoline-4-carboxamide], the IC50 is 183 nM.

`Cc1nn(Cc2ccc(F)cc2)cc1NC(=O)c1cc(C(F)(F)F)nc2cc(F)c(F)cc12` [Example 2, 6,7-difluoro-N-[1-(4-fluorobenzyl)-3-methyl-1H-pyrazol-4-yl]-2-(trifluoromethyl)quinoline-4-carboxamide]: the IC50 was 505 nM.

On to `COC(=O)c1nn(Cc2ccc(F)cc2)cc1NC(=O)c1cc(C(F)(F)F)nc2ccc(Br)cc12` [Example 17, methyl 4-({[6-bromo-2-(trifluoromethyl)quinolin-4-yl]carbonyl}amino)-1-(4-fluorobenzyl)-1H-pyrazole-3-carboxylate], for which the IC50 was found to be 64 nM.

For the molecule `Cc1nn(Cc2ccc(F)cc2)cc1NC(=O)c1cc(C(N)=O)nc2ccccc12` [Example 5, N^4-[1-(4-fluorobenzyl)-3-methyl-1H-pyrazol-4-yl]quinoline-2,4-dicarboxamide], the IC50 came out at 15 nM.

On to `CNC(=O)c1nc(Cn2cc(NC(=O)c3cc(C(N)=O)nc4ccccc34)c(C)n2)no1` [Example 65, N^4-(3-methyl-1-{[5-(methylcarbamoyl)-1,2,4-oxadiazol-3-yl]methyl}-1H-pyrazol-4-yl)quinoline-2,4-dicarboxamide], for which the IC50 is 301 nM.

As for `CS(=O)(=O)c1ccc(Cn2cc(NC(=O)c3cc(C(N)=O)nc4ccccc34)c(C(F)(F)F)n2)cc1` [Example 42, N^4-{1-[4-(methylsulfonyl)benzyl]-3-(trifluoromethyl)-1H-pyrazol-4-yl}quinoline-2,4-dicarboxamide], the IC50 came out at 61 nM.

As for `O=C(Nc1cn(Cc2ccc(F)cc2)nc1C(F)(F)F)c1cc(C(F)(F)F)nc2c(Cl)cc(Cl)cc12` [Example 32, 6,8-dichloro-N-[1-(4-fluorobenzyl)-3-(trifluoromethyl)-1H-pyrazol-4-yl]-2-(trifluoromethyl)quinoline-4-carboxamide], the IC50 came to 763 nM.

As to `NC(=O)c1nn(Cc2ccc(F)cc2)cc1NC(=O)c1cc(C(F)(F)F)nc2ccc(Br)cc12` [Example 21, 6-bromo-N-[3-carbamoyl-1-(4-fluorobenzyl)-1H-pyrazol-4-yl]-2-(trifluoromethyl)quinoline-4-carboxamide], the IC50 is 1150 nM.

For `Cc1nn(Cc2ccc(C#N)cc2)cc1NC(=O)c1cc(C2CC2)nc2ccc(Br)cc12` [Example 51, 6-bromo-N-[1-(4-cyanobenzyl)-3-methyl-1H-pyrazol-4-yl]-2-cyclopropylquinoline-4-carboxamide], the IC50 was determined as 5.2 nM.

For the next experiment, the target named is T2, GLUT2 (Homo sapiens, UniProt P11168).
T2 sequence (P11168 1-524): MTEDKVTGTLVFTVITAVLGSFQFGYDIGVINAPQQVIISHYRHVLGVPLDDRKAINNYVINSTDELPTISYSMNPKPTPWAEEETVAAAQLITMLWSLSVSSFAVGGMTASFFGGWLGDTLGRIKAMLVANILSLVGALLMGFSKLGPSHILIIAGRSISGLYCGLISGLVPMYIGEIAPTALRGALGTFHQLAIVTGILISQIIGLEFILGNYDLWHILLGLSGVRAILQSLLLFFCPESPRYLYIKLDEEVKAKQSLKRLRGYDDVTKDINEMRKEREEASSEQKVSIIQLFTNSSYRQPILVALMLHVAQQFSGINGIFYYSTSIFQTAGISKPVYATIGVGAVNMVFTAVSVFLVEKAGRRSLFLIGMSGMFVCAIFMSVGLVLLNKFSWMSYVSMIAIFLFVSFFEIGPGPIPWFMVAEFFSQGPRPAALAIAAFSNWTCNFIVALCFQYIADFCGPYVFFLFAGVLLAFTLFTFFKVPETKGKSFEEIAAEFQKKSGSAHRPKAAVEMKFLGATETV
In words: Indirect measurement of GLUT activity by quantification of intracellular ATP levels (fructose induced ATP increase). In kind it is cell-based. As to conditions: 30 mM fructose, 1 uM Rotenone, 15 min; read-out: IC50 regarding fructose induced ATP increase (GLUT2 inhibition).
Source text: as §1
Regarding `Cc1nn(Cc2ccc(C#N)cc2)cc1NC(=O)c1cc(C(N)=O)nc2ccccc12` [Example 9, N^4-[1-(4-cyanobenzyl)-3-methyl-1H-pyrazol-4-yl]quinoline-2,4-dicarboxamide], the IC50 worked out at 36100 nM.

Regarding `Cc1ccc2nc(C)cc(C(=O)Nc3cn(Cc4ccc(F)cc4)nc3C)c2c1` [Example 1, N-[1-(4-fluorobenzyl)-3-methyl-1H-pyrazol-4-yl]-2,6-dimethylquinoline-4-carboxamide], the IC50 worked out at 5210 nM.

Values taken from US20170226081A1, “GLUCOSE TRANSPORT INHIBITORS” (Bayer Pharma Aktiengesellschaft, priority 2014, published 2017).
